Data: ChEMBL document CHEMBL3112450, “Synthesis and in vitro antitumor evaluation of primary amine substituted quinazoline linked benzimidazole” (Bioorg Med Chem Lett, 2014)

Assays:
Type in all cases: functional
HCT-116 = test: Cytotoxicity against human HCT116 cells assessed as cell growth at 10^-6 M after 48 hrs by SRB assay; conditions: HCT-116, 48 h, read-out: Activity
NCI-H322M = test: Cytotoxicity against human NCI-H322M cells assessed as cell growth at 10^-4 M after 48 hrs by SRB assay; conditions: read-out: Activity
SF-268 [1] = test: Cytotoxicity against human SF268 cells after 48 hrs by SRB assay; conditions: SF-268, 48 h
HCT-15 = test: Cytotoxicity against human HCT15 cells assessed as cell growth at 10^-7 M after 48 hrs by SRB assay; conditions: HCT-15, 48 h, read-out: Activity
[2] = Cytotoxicity against human OVCAR5 cells after 48 hrs by SRB assay; conditions: OVCAR-5, 48 h
CAKI-1 [3] = test: Cytotoxicity against human Caki1 cells assessed as cell growth at 10^-8 M after 48 hrs by SRB assay; conditions: CAKI-1, 48 h, read-out: Activity
MOLT-4 [4] = test: Cytotoxicity against human MOLT4 cells assessed as cell growth at 10^-4 M after 48 hrs by SRB assay; conditions: MOLT-4, 48 h, read-out: Activity
SF-268 [5] = test: Cytotoxicity against human SF268 cells assessed as cell growth at 10^-7 M after 48 hrs by SRB assay; conditions: SF-268, 48 h, read-out: Activity
[6] = Cytotoxicity against human Hs578T cells assessed as cell growth at 10^-4 M after 48 hrs by SRB assay; conditions: Hs-578T, read-out: Activity
[7] = Cytotoxicity against human NCI-ADR-RES cells assessed as cell growth at 10^-7 M after 48 hrs by SRB assay; conditions: read-out: Activity
SK-MEL-5 [8] = test: Cytotoxicity against human SK-MEL-5 cells assessed as cell growth at 10^-7 M after 48 hrs by SRB assay; conditions: SK-MEL-5, 48 h, read-out: Activity
[9] = Cytotoxicity against human OVCAR5 cells assessed as cell growth at 10^-4 M after 48 hrs by SRB assay; conditions: OVCAR-5, 48 h, read-out: Activity
SNB-19 = test: Cytotoxicity against human SNB19 cells assessed as cell growth at 10^-6 M after 48 hrs by SRB assay; conditions: SNB-19, 48 h, read-out: Activity
HOP-62 = test: Cytotoxicity against human HOP62 cells assessed as cell growth at 10^-8 M after 48 hrs by SRB assay; conditions: HOP-62, 48 h, read-out: Activity
T47D = test: Cytotoxicity against human T47D cells assessed as cell growth at 10^-6 M after 48 hrs by SRB assay; conditions: read-out: Activity
SK-MEL-2 = test: Cytotoxicity against human SK-MEL-2 cells assessed as cell growth at 10^-7 M after 48 hrs by SRB assay; conditions: SK-MEL-2, 48 h, read-out: Activity
MOLT-4 [10] = test: Cytotoxicity against human MOLT4 cells assessed as cell growth at 10^-7 M after 48 hrs by SRB assay; conditions: MOLT-4, 48 h, read-out: Activity
NCI-H522 [11] = test: Cytotoxicity against human NCI-H522 cells assessed as cell growth at 10^-6 M after 48 hrs by SRB assay; conditions: NCI-H522, 48 h, read-out: Activity
SK-MEL-5 [12] = test: Cytotoxicity against human SK-MEL-5 cells after 48 hrs by SRB assay; conditions: SK-MEL-5, 48 h
KM12 = test: Cytotoxicity against human KM12 cells assessed as cell growth at 10^-8 M after 48 hrs by SRB assay; conditions: KM12, 48 h, read-out: Activity
[13] = Cytotoxicity against human Hs578T cells assessed as cell growth at 10^-6 M after 48 hrs by SRB assay; conditions: Hs-578T, read-out: Activity
RXF 393 [14] = test: Cytotoxicity against human RXF393 cells assessed as cell growth at 10^-8 M after 48 hrs by SRB assay; conditions: RXF 393, 48 h, read-out: Activity
HCC 2998 = test: Cytotoxicity against human HCC2998 cells assessed as cell growth at 10^-8 M after 48 hrs by SRB assay; conditions: HCC 2998, 48 h, read-out: Activity
SF-539 = test: Cytotoxicity against human SF539 cells assessed as cell growth at 10^-8 M after 48 hrs by SRB assay; conditions: SF-539, 48 h, read-out: Activity
SR = test: Cytotoxicity against human SR cells assessed as cell growth at 10^-8 M after 48 hrs by SRB assay; conditions: read-out: Activity
MDA-MB-231 = test: Cytotoxicity against human MDA-MB-231 cells after 48 hrs by SRB assay; conditions: MDA-MB-231, 48 h
PC-3 = test: Cytotoxicity against human PC3 cells assessed as cell growth at 10^-8 M after 48 hrs by SRB assay; conditions: PC-3, 48 h, read-out: Activity
NCI-H522 [15] = test: Cytotoxicity against human NCI-H522 cells assessed as cell growth at 10^-8 M after 48 hrs by SRB assay; conditions: NCI-H522, 48 h, read-out: Activity
LOX IMVI = test: Cytotoxicity against human LOXIMVI cells assessed as cell growth at 10^-7 M after 48 hrs by SRB assay; conditions: read-out: Activity
RXF 393 [16] = test: Cytotoxicity against human RXF393 cells assessed as cell growth at 10^-6 M after 48 hrs by SRB assay; conditions: RXF 393, 48 h, read-out: Activity
NCI-H460 = test: Cytotoxicity against human NCI-H460 cells assessed as cell growth at 10^-7 M after 48 hrs by SRB assay; conditions: NCI-H460, 48 h, read-out: Activity
CAKI-1 [17] = test: Cytotoxicity against human Caki1 cells after 48 hrs by SRB assay; conditions: CAKI-1, 48 h
[18] = Cytotoxicity against human OVCAR5 cells assessed as cell growth at 10^-7 M after 48 hrs by SRB assay; conditions: OVCAR-5, 48 h, read-out: Activity
UACC-62 = test: Cytotoxicity against human UACC62 cells after 48 hrs by SRB assay; conditions: UACC-62, 48 h
OVCAR-3 = test: Cytotoxicity against human OVCAR3 cells after 48 hrs by SRB assay; conditions: OVCAR-3, 48 h
HOP-92 = test: Cytotoxicity against human HOP92 cells after 48 hrs by SRB assay; conditions: HOP-92, 48 h
SK-MEL-28 = test: Cytotoxicity against human SK-MEL-28 cells assessed as cell growth at 10^-8 M after 48 hrs by SRB assay; conditions: SK-MEL-28, 48 h, read-out: Activity
BT-549 = test: Cytotoxicity against human BT549 cells after 48 hrs by SRB assay; conditions: BT-549, 48 h

## C=CCn1c(C)nc2cc(Nc3nc(Nc4ccc5nc(C)n(CC=C)c5c4)c4ccccc4n3)ccc21
HCT-116
  growth at 1 µM: -54%
NCI-H322M
  growth at 100 µM: -70%
SF-268 [1]
  GI50: 1.04 µM
  LC50 (50% lethal concentration): 4.73 µM
  TGI: 2.21 µM
HCT-15
  growth at 0.1 µM: 96%
[2]
  GI50: 0.4 µM
  TGI: 1.49 µM
CAKI-1 [3]
  growth at 0.01 µM: 94%
MOLT-4 [4]
  growth at 100 µM: -18%
SF-268 [5]
  growth at 0.1 µM: 91%
[6]
  growth at 100 µM: -21%
[7]
  growth at 0.1 µM: 100%
SK-MEL-5 [8]
  growth at 0.1 µM: 94%
[9]
  growth at 100 µM: -44%
SNB-19
  growth at 1 µM: 54%
HOP-62
  growth at 0.01 µM: 98%
T47D
  growth at 1 µM: -4%
SK-MEL-2
  growth at 0.1 µM: 98%
MOLT-4 [10]
  growth at 0.1 µM: 91%
NCI-H522 [11]
  growth at 1 µM: -83%
SK-MEL-5 [12]
  GI50: 1.59 µM
  TGI: 3.69 µM
KM12
  growth at 0.01 µM: 96%
[13]
  growth at 1 µM: 94%
RXF 393 [14]
  growth at 0.01 µM: 101%
HCC 2998
  growth at 0.01 µM: 99%
SF-539
  growth at 0.01 µM: 96%
SR
  growth at 0.01 µM: 95%
MDA-MB-231
  GI50: 0.205 µM
  TGI: 0.417 µM
PC-3
  growth at 0.01 µM: 98%
NCI-H522 [15]
  growth at 0.01 µM: 97%
LOX IMVI
  growth at 0.1 µM: 96%
RXF 393 [16]
  growth at 1 µM: 22%
NCI-H460
  growth at 0.1 µM: 103%
CAKI-1 [17]
  GI50: 1.61 µM
  LC50 (concentration causing 50% net cell kill): 5.69 µM
  TGI: 3.03 µM
[18]
  growth at 0.1 µM: 95%
UACC-62
  GI50: 1.26 µM
  TGI: 2.59 µM
OVCAR-3
  GI50: 0.192 µM
  LC50: 0.701 µM
  TGI: 0.367 µM
HOP-92
  GI50: 0.78 µM
  LC50: 4.69 µM
  TGI: 2.08 µM
SK-MEL-28
  growth at 0.01 µM: 108%
BT-549
  GI50: 1.68 µM
  TGI: 3.1 µM

## C=CCn1c(C)nc2ccc(Nc3nc(Nc4ccc(F)cc4)nc4ccccc34)cc21
HCT-116
  growth at 1 µM: 88%
NCI-H322M
  growth at 100 µM: -82%
SF-268 [1]
  GI50: 8.69 µM
  LC50 (50% lethal concentration): 82.3 µM
  TGI: 27.8 µM
HCT-15
  growth at 0.1 µM: 101%
[2]
  GI50: 11.6 µM
  LC50: 61.2 µM
  TGI: 26.6 µM
CAKI-1 [3]
  growth at 0.01 µM: 100%
MOLT-4 [4]
  growth at 100 µM: -48%
SF-268 [5]
  growth at 0.1 µM: 90%
[6]
  growth at 100 µM: -16%
[7]
  growth at 0.1 µM: 97%
SK-MEL-5 [8]
  growth at 0.1 µM: 93%
[9]
  growth at 100 µM: -80%
SNB-19
  growth at 1 µM: 86%
HOP-62
  growth at 0.01 µM: 93%
T47D
  growth at 1 µM: 79%
SK-MEL-2
  growth at 0.1 µM: 101%
MOLT-4 [10]
  growth at 0.1 µM: 96%
NCI-H522 [11]
  growth at 1 µM: 91%
SK-MEL-5 [12]
  GI50: 1.36 µM
  LC50: 5.14 µM
  TGI: 2.64 µM
KM12
  growth at 0.01 µM: 95%
[13]
  growth at 1 µM: 86%
RXF 393 [14]
  growth at 0.01 µM: 98%
HCC 2998
  growth at 0.01 µM: 95%
SF-539
  growth at 0.01 µM: 99%
SR
  growth at 0.01 µM: 98%
MDA-MB-231
  GI50: 2.37 µM
  LC50: > 100 µM
  TGI: 8.24 µM
PC-3
  growth at 0.01 µM: 98%
NCI-H522 [15]
  growth at 0.01 µM: 89%
LOX IMVI
  growth at 0.1 µM: 98%
RXF 393 [16]
  growth at 1 µM: 64%
NCI-H460
  growth at 0.1 µM: 103%
CAKI-1 [17]
  GI50: 6.86 µM
  LC50 (concentration causing 50% net cell kill): 92.6 µM
  TGI: 27.5 µM
[18]
  growth at 0.1 µM: 101%
UACC-62
  GI50: 1.8 µM
  TGI: 3.7 µM
UACC-62; read-out: LC50 (the source's name)
  CC50: 7.59 µM
OVCAR-3
  GI50: 5.04 µM
  LC50: 46.3 µM
  TGI: 17.8 µM
HOP-92
  GI50: 0.585 µM
  LC50: 36.2 µM
  TGI: 6.97 µM
SK-MEL-28
  growth at 0.01 µM: 95%
BT-549
  GI50: 3.35 µM
  LC50: 73.1 µM
  TGI: 18.1 µM
